Assays:
[1] = test system: 17 angiogenic and adhesion-related genes in HUVEC cells; experiment: Gene regulation assay (whole human gene-expression microarray); assay type: cell-based; conditions: 10^−5M, 48 hours, FIG. 2
Protocol: HUVEC cells were maintained in CS—C Complete Medium, grown at 50 percent of confluency and then treated with 1.00E-05 M final concentration of the peptide compounds during 48 hours.
Total RNA was extracted from untreated control or RGD-compounds treated cells using TRIzol (Invitrogen) according to standard protocol. RNA was further purified with RNeasy Mini Kit (Qiagen) and the concentration and quality was assessed by NanoDrop spectrophotometer and Agilent 2100 Bioanalyzer, respectively. Only RNA Samples with a RIN number between […]were used in the microarray assays.
In order to study the intracellular effect of all RGD-binding compounds, a cell-culture whole gene-expression assay was performed. HUVEC cells were treated separately with a 10^−5M concentration of the test compounds during 48 hours. The simultaneous analysis of all human gene-expression by microarray let us identify which human gene(s) are induced, inhibited or un-affected after the test compounds were bound to the receptors of the cells.
Whole human gene expression microarray analysis was performed using Agilent Technologies (Santa Clara, Calif.). This platform comprises a two-color design with two RNA samples labelled with either Cy3 or Cy5 and hybridized to the same 44K Agilent microarray. Each array contains about 41,000 unique noncontrol 60-mer probes. RNAs from untreated and peptide treated-HUVEC cells were two-color labelled and hybridized to randomly chosen arrays a total of four times. A dye swap was performed for each sample on a different slide to remove any bias from the labelling dyes.
For each sample, 800 ng total RNA was reverse transcribed, linear amplified, and labelled with either Cy3 or Cy5 using Agilent's Low RNA Input Linear Amplification Kit PLUS, according to manufacturer's instructions. After labelling, samples were measured on a Nanodrop microarray module for labelling efficiency and quantification. Samples were then hybridized on Agilent 4×44K whole human genome GE arrays at 65° C. for 17 h. After washing in GE washing buffer, the slide was scanned with Agilent Microarray Scanner. Feature extraction software (Version 9.5.3) was used to convert the image into gene expression data. Data were normalized by the Linear Lowess method. Genes that were 1.5-fold differentially expressed on 3 of 4 arrays were scored as significant. Furthermore, only genes with a p-value≦0.05 based on a Student's t-test were selected. Mean fold change is mean of 4 arrays. Angiogenic-related genes were classified according to Gene Ontology.

αvβ3 integrin = αvβ3 integrin (Homo sapiens, UniProt P05106+P06756); conditions: J. Med. Chem. 2010, vol. 53(1), pp. 106-118; cited from earlier work
[2] = test system: αvβ3 integrin over-expressed human umbilical vein endothelial cells (HUVEC); experiment: Endothelial cell adhesion assay (adhesion inhibition on a vitronectin surface); assay type: cell-based; conditions: HUVEC on vitronectin-coated plate, 1 h at 37° C.; FIG. 1
Protocol: Human umbilical endothelial cell (HUVEC) was purchased from Cambrex BioScience (USA). Cells were grown on the 0.5% gelatin coated plate in CS—C Complete Medium (Sigma) and were used for experiments after three passages. DLD-1, human colon cancer cell line was purchased from LGC/ATCC (Cat. Number CCL-221), and maintained in RPMI 1640 (Sigma) supplemented with 10% FBS (Sigma). Human vitronectin was from Sigma. Peptides to be assayed were dissolved in double-distilled water at a concentration of 10 mg/ml and stored in the dark at −80°.
HUVEC cells were grown to subconfluent state and then harvested by 0.025% trypsin/EDTA (Sigma) in one minute. Cells were preincubated with various concentrations of peptides on ice for 15 min in CS—C Medium. Same volume of vehicle was added to cells as a control. Peptide-treated cells (5×10^4 cells/100 μl/well) were plated onto a 96-well microplate which was precoated with vitronectin ([…] in PBS), and incubated for 1 h at 37° C., 5% CO^2/95% air to allow cell attachment. Cells were washed gently with PBS for three times to remove detached cells. Number of adherent cells was measured by Fluorescent Cell counting Kit (FCCK) at 535 nm (excitation at 485 nm) using a fluorescent plate reader (Bioscan). […]
Data are expressed as the means±standard error of mean (SEM). Statistical differences among treatment groups were assessed by analysis of variance (ANOVA). […]

[3] = of 17 angiogenic and adhesion-related genes

αvβ3 integrin, sequence (P06756 31-889 limits assumed): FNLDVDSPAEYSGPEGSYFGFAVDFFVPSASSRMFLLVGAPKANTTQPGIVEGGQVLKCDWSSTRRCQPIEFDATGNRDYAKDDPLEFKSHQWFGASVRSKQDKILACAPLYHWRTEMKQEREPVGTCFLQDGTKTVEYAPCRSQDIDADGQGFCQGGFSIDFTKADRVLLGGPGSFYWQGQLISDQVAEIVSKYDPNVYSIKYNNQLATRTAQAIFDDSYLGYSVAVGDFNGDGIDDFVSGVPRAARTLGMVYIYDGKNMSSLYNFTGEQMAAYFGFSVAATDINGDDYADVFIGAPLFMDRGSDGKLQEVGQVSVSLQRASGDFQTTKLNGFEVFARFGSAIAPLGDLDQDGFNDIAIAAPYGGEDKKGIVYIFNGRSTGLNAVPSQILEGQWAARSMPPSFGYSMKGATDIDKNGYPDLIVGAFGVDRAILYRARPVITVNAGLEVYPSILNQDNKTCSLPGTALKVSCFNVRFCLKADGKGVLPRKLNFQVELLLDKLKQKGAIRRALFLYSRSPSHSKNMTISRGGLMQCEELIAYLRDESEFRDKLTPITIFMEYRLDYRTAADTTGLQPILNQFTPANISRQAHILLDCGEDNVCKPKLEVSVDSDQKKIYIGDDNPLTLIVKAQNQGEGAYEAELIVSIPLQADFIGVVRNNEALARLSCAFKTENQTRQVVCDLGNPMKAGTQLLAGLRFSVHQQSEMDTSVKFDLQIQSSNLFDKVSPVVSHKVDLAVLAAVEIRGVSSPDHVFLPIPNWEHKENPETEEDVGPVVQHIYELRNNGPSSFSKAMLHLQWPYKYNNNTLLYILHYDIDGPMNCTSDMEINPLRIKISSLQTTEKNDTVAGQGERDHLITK
αvβ3 integrin, sequence (P06756 891-1048 limits assumed): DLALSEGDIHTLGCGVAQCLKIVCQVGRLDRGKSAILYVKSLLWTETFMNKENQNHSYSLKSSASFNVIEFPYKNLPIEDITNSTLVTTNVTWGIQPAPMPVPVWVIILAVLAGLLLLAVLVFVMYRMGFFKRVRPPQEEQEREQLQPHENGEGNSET
αvβ3 integrin, sequence (P05106 27-788): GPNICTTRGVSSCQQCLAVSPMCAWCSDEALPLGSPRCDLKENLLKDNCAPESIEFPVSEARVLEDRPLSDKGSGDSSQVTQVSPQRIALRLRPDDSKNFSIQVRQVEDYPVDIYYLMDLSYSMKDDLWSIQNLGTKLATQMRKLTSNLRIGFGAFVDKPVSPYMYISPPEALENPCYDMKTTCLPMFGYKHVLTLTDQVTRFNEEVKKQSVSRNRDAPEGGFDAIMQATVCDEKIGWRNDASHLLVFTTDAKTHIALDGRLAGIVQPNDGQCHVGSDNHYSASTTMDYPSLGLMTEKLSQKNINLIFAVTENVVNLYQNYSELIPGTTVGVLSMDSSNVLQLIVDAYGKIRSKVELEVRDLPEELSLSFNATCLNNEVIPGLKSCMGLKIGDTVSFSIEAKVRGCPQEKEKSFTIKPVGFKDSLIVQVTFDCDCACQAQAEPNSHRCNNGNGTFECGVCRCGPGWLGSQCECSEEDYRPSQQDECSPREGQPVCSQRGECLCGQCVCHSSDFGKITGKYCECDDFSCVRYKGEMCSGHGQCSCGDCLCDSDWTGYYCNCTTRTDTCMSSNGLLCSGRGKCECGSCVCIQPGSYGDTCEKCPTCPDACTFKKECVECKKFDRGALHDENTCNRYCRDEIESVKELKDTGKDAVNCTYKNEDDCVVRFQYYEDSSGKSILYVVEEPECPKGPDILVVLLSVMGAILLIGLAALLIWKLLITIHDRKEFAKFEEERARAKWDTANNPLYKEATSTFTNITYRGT

CC1(C)C(=O)N[C@@H](CCCNC(=N)N)C(=O)NCC(=O)N[C@@H](CC(=O)O)C(=O)NC2(Cc3ccccc3)CN1C2=O (stereo partly shown) [compound 2]
pattern of gene-expression conserved relative to cilengitide ([1]; of 17 genes): 14 of 17

c[(R)-βPheψ(NHCO)Aspψ(NHCO)Gly-Arg]
inhibiting the αvβ3 integrin-mediated cell adhesion (αvβ3 integrin): good activity

CC(C)[C@H]1C(=O)N[C@@H](CCCN=C(N)N)C(=O)NCC(=O)N[C@@H](CC(=O)O)C(=O)N[C@H](Cc2ccccc2)C(=O)N1C [cilengitide, cyclo(Arg-Gly-Asp-(D)Phe-N(Me)Val)]
genes activated after treatment [1, 3]: 10 genes | genes blocked after treatment [1, 3]: 7 genes

N=C(N)NCCC[C@@H]1NC(=O)CN2C(=O)C(NC(=O)[C@H](CC(=O)O)NC(=O)CNC1=O)[C@H]2[C@H](O)CO (stereo partly shown) [compound 1]
pattern of gene-expression conserved relative to cilengitide ([1]; of 17 genes): 15/17

cyclo-[Asp-(beta-Lactam)-Arg [Example 24]
pattern of gene-expression almost opposite (activation vs inhibition) compared with cilengitide ([1]; of 17 genes): 15 of 17 | adhesion inhibition (% of cell adhesion vs. concentration) [2]: comparable adhesion inhibition as cilengitide and the RGD-cyclopentapeptides
